Values after ≈ are worked out from the molar mass of the structure shown. Values joined by “and” are separate entries in the source; they are usually repeats but may differ in a detail not shown here. Equal entries are not always repeated.
Assays:
2.2.15 cells = experiment: Arginase toxicity to cells (CPE method, Reed-Muench); format: cell-based, human; conditions: 8 days drug addition
Description: Divide experiment into control group and test groups with different drug concentration. Digest cells, dilute to 200,000 cells/ml, transfer to culture plate, 100 μl per well for 96-well plate, incubate for 24 hours under 5% CO2 at 37° C., ready for experiment when cells grown into monolayer. […] Observe cytopathological changes, 8 days or 4 days under microscope, totally destroyed is 4; 75% destroyed is 3; 50% destroyed is 2, 25% destroyed is 1; no changes is 0. Calculate TC50 and TC0 according to Reed-Muench Method:
A=log>50% drug concentration; B=log<50% drug concentration; C=log times of dilution
Starting from 40 IU/ml and subsequently 20, 10, 5, 2.5 IU/ml, change drug solution every 4 days until 8 days, observe cytopathological changes under microscope, and check for CPE with microscope.

[1] = tested on: HBV-DNA in supernatant of 2.2.15 cell culture; experiment: HBV-DNA dot blot in supernatant of 2.2.15 cell culture; format: cell-based, hepatitis B virus; conditions: day 8; for HBV-DNA in cell culture supernatant, CPM: control 3808.34
Description: Extraction of HBV-DNA from 2.2.15 cells supernatant: Grow 200000 cells/ml 2.2.15 cell on 24-well plate, 1 ml per well, add drugs after 24 hours incubation, change drug solution every 4 days with the same concentration, collect supernatant from cell culture after 8 days of incubation counted from the day drugs added into the culture, precipitate with polyethylene glycol, digest with proteinase K, extract with phenol:chloroform:isopentanol, nucleic acid precipitation by absolute ethanol and so on procedures, vacuum dry, re-dissolve in TE buffer as sample.
Dot blot: place dots: take 20 μl sample (contains 25 μg DNA), denature, neutralize, serial dilute 20×SSC buffer to 1:8 dilution on nitrocellulose membrane, oven dry, pre-hybridize, hybridize, wash membrane, radioactive self exposure and so on procedures. Develop X ray film with conventional method. Scan developed film with scanner, measure density with gel-pro software, calculate suppression rate and IC50.

HBeAg = experiment: Suppression of HBeAg secretion in 2.2.15 cells (radioimmunoassay, cpm); format: cell-based, hepatitis B virus
Description: (§1) Grow 200000 cells/ml 2.2.15 cell on 24-well plate, 1 ml per well, incubate for 24 hours under 5% CO2 at 37° C. […] 4 wells per concentration, incubate under 5% CO2 at 37° C., change drug solution every 4 days with the same concentration, retrieve culture medium at day 8, preserve at −20° C. Repeat experiment for 2 batches, test for HBsAg and HBeAg separately. Check cpm value for each wells using γ-counter.
(§2) Calculating drug effectiveness: calculate the mean and standard deviation of cpm from the cell control group and groups with different drug concentration, P/N value and percent suppression, IC50 and SI. • (1)
(§3) [formula] • (2) Calculate IC50 for drug suppression of antigen:
(§4) [formula] • (4) Calculate the cpm differences between HBsAg and HBeAg in different dilutions and control groups by t-test.

HBsAg = experiment: Suppression of HBsAg secretion in 2.2.15 cells (radioimmunoassay, cpm); format: cell-based, hepatitis B virus
Description: as §1, §2, §3, §4

[2] = Lamivudine 50 μg/ml, batch 1, day 8
[3] = Lamivudine 50 μg/ml, batch 2, day 8
[4] = Lamivudine 50 μg/ml, two batches average, day 8
[5] = Lamivudine 50 μg/ml, two batches average, day 8, listed as lamivudine
[6] = Lamivudine 100 μg/ml, batch 1, day 8
[7] = Lamivudine 100 μg/ml, batch 2, day 8
[8] = Lamivudine 100 μg/ml, two batches average, day 8
[9] = Lamivudine 100 μg/ml, two batches average, day 8, listed as lamivudine
[10] = Lamivudine 200 μg/ml, batch 1, day 8
[11] = Lamivudine 200 μg/ml, batch 2, day 8
[12] = Lamivudine 200 μg/ml, two batches average, day 8
[13] = Lamivudine 200 μg/ml, two batches average, day 8, listed as lamivudine
[14] = Lamivudine 400 μg/ml, batch 1, day 8
[15] = Lamivudine 400 μg/ml, batch 2, day 8
[16] = Lamivudine 400 μg/ml, two batches average, day 8
[17] = Lamivudine 400 μg/ml, two batches average, day 8, listed as lamivudine
[18] = Lamivudine 800 μg/ml, batch 1, day 8
[19] = Lamivudine 800 μg/ml, batch 2, day 8
[20] = Lamivudine 800 μg/ml, two batches average, day 8
[21] = Lamivudine 800 μg/ml, two batches average, day 8, listed as lamivudine

Structure (SMILES): Nc1ccn([C@@H]2CS[C@H](CO)O2)c(=O)n1 [Lamivudine, lamivudine, reference compound]
- TC0 (2.2.15 cells): 800 ± 0 µg/mL
- TC50 (2.2.15 cells): 1198.97 µg/mL (≈ 5.23 mM)
- TC0 (2.2.15 cells; listed as lamivudine): 800 ± 0 µg/mL
- TC50 (2.2.15 cells; listed as lamivudine): 1198.97 ± 97.50 µg/mL and 1198.97 µg/mL
- IC50 ([1]; Hepatitis B virus, 192 h, first batch experiment): 114 µg/mL (≈ 0.496 mM)
- % suppression of HBV-DNA in cell culture supernatant ([1]; Lamivudine 50 μg/ml): 25.6576%
- HBV-DNA in cell culture supernatant, CPM ([1]; Lamivudine 50 μg/ml): 2831.21 CPM
- % suppression of HBV-DNA in cell culture supernatant ([1]; Lamivudine 100 μg/ml): 61.5237%
- HBV-DNA in cell culture supernatant, CPM ([1]; Lamivudine 100 μg/ml): 1465.31 CPM
- % suppression of HBV-DNA in cell culture supernatant ([1]; Lamivudine 200 μg/ml): 71.6404%
- HBV-DNA in cell culture supernatant, CPM ([1]; Lamivudine 200 μg/ml): 1080.03 CPM
- % suppression of HBV-DNA in cell culture supernatant ([1]; Lamivudine 400 μg/ml): 79.1083%
- HBV-DNA in cell culture supernatant, CPM ([1]; Lamivudine 400 μg/ml): 795.628 CPM
- % suppression of HBV-DNA in cell culture supernatant ([1]; Lamivudine 800 μg/ml): 82.5905%
- HBV-DNA in cell culture supernatant, CPM ([1]; Lamivudine 800 μg/ml): 663.013 CPM
- IC50 (HBeAg; Hepatitis B virus, 192 h, read-out: HBeAg IC50): > 800 µg/mL
- HBeAg (CPM) % suppression (HBeAg; [2]): 13.20%
- HBeAg (CPM) % suppression (HBeAg; [3]): 14.99%
- HBeAg (CPM) % suppression (HBeAg; [4]): 14.10 ± 1.27%
- HBeAg (CPM) % suppression (HBeAg; [5]): 14.10±1.27%
- HBeAg (CPM) % suppression (HBeAg; [6]): 17.48%
- HBeAg (CPM) % suppression (HBeAg; [7]): 14.19%
- HBeAg (CPM) % suppression (HBeAg; [8]): 15.84 ± 2.33%
- HBeAg (CPM) % suppression (HBeAg; [9]): 15.84±2.33%
- HBeAg (CPM) % suppression (HBeAg; [10]): 16.35%
- HBeAg (CPM) % suppression (HBeAg; [11]): 19.31%
- HBeAg (CPM) % suppression (HBeAg; [12]): 17.83 ± 2.09%
- HBeAg (CPM) % suppression (HBeAg; [13]): 17.83±2.09%
- HBeAg (CPM) % suppression (HBeAg; [14]): 12.67%
- HBeAg (CPM) % suppression (HBeAg; [15]): 13.32%
- HBeAg (CPM) % suppression (HBeAg; [16]): 12.99 ± 0.46%
- HBeAg (CPM) % suppression (HBeAg; [17]): 12.99±0.46%
- HBeAg (CPM) % suppression (HBeAg; [18]): 6.10%
- HBeAg (CPM) % suppression (HBeAg; [19]): 10.37%
- HBeAg (CPM) % suppression (HBeAg; [20]): 8.23 ± 3.02%
- HBeAg (CPM) % suppression (HBeAg; [21]): 8.23±3.02%
- HBeAg IC50 (HBeAg; batch 1, day 8): >800 µg/mL
- HBeAg IC50 (HBeAg; two batches average, day 8): >800 ± 0 TC0 800 μg/ml and >800 μg/ml
- IC50 (HBsAg; Hepatitis B virus, 192 h, read-out: HBsAg IC50): > 800 µg/mL
- HBsAg (CPM) % suppression (HBsAg; [2]): 6.24%
- HBsAg (CPM) % suppression (HBsAg; [3]): 0.65%
- HBsAg (CPM) % suppression (HBsAg; [4]): 3.45 ± 3.95%
- HBsAg (CPM) % suppression (HBsAg; [5]): 3.45±3.95%
- HBsAg (CPM) % suppression (HBsAg; [6]): 12.05%
- HBsAg (CPM) % suppression (HBsAg; [7]): 5.15%
- HBsAg (CPM) % suppression (HBsAg; [8]): 8.6 ± 4.88%
- HBsAg (CPM) % suppression (HBsAg; [9]): 8.60±4.88%
- HBsAg (CPM) % suppression (HBsAg; [10]): 2.35%
- HBsAg (CPM) % suppression (HBsAg; [11]): 8.99%
- HBsAg (CPM) % suppression (HBsAg; [12]): 5.67 ± 4.7%
- HBsAg (CPM) % suppression (HBsAg; [13]): 5.67±4.70%
- HBsAg (CPM) % suppression (HBsAg; [14]): 8.10%
- HBsAg (CPM) % suppression (HBsAg; [15]): 0%
- HBsAg (CPM) % suppression (HBsAg; [16]): 4.05 ± 5.73%
- HBsAg (CPM) % suppression (HBsAg; [17]): 4.05±5.73%
- HBsAg (CPM) % suppression (HBsAg; [18]): 0%
- HBsAg (CPM) % suppression (HBsAg; [19]): 9.299%
- HBsAg (CPM) % suppression (HBsAg; [20]): 4.65 ± 6.58%
- HBsAg (CPM) % suppression (HBsAg; [21]): 4.65±6.58%
- HBsAg IC50 (HBsAg; batch 1, day 8): >800 µg/mL
- HBsAg IC50 (HBsAg; two batches average, day 8): >800 ± 0 TC0 μg/ml and >800 μg/ml
